Measurements as given in US4863748A, “Dietary products and uses comprising methylsulfonylmethane” (priority 1986, dated 1989).

Experiments:
stress death = experiment: Stress death in fish (Example 10); type: in vivo, Goldfish; details: 2% by weight in feed, 25 fish; control 11 deaths
Experimental: 62 Goldfish, about 2 inches long, were divided into two 31 population lots and placed in acclimated aquariums (2) maintained at 50° F. On receipt of the fish, two small one gallon aquariums were filled with tap water and stablized for 5 days by aeration with an aerator/filter combination connected to a common aquarium air pump. Air delivery during the test period was standardized at 100 ml of air per minute. From a 1 oz. package of "Wardleys" goldfish food two 10 gram samples were removed. One sample was untreated and the other was moistened with about one ml of pure ethanol containing 0.2 gram methylsulfonylmethane in solution. The feed absorbed all the methylsulfonylmethane (the lot after air drying for 48 hours weighed 10.2 grams). Both feeds were pulverized to a coarse powder suitable for feeding small fish.
The 31 fish in each of the two holding aquariums were identified as batch A and batch B. During the acclimatization and test periods the batch A fish were fed 0.5 gram of untreated "Wardleys" food once daily. Batch B fish were fed 0.5 gram of the feed containing the methylsulfonylmethane during the acclimatization and test periods. Neither batch A nor B consumed all of the feed as some eventually collected in the fiberglass filter. However, most of each feeding was consumed in the first 5-10 minutes after delivery. […]

mood and depression = experiment: Mental normalcy (Example 16); type: in vivo, human
Experimental: Students reported that while taking methylsulfonylmethane, their ability to concentrate is enhanced. Methylsulfonylmethane therefore is useful in conjunction with CNS therapeutants. The most useful application for methylsulfonylmethane seen to date in the field of mental normalizing is as an aid to the terminally ill, to relieve anxiety and depression.
To a chronically or terminally ill patient suffering from mental depression, administer […] body weight of methylsulfonylmethane daily, in tablet or capsule form, dissolved in water or a cold beverage, or admixed in a cold food. Within 12 hours to 2 days, a significant improvement in the mental attitude of the patient will be noted.

[1] = tested on: scarification of the right cheek pouch; experiment: Wound healing of the cheek pouch in hamsters (Example 17); type: in vivo; details: 0.1 gm/kg methylsulfonylmethane alone or 100 mg ascorbic acid alone in feed; controls day 4 and 5
Experimental: Four sets of 5 hamsters were subject to scarification of the right cheek pouch, using standard methodology. One week prior to pouch injury, one set was started on a daily regimen of 0.1 gm/kg of methylsulfonylmethane in the diet of standard hamster feed, a second group was given 0.1 gm/kg of methylsulfonylmethane plus 100 mg of ascorbic acid in the same feed, a third group was given only 100 mg of ascorbic acid in the same feed, and the last group, fed only the feed, was held as control. Daily post-scarification examination was made to determine the rate of injury repair.

platelet count = experiment: Low platelet count in lupus erythematosus (Example 22); type: in vivo, human; details: 1.5 gm/day in 3 doses, 2-year period
Source text: Methylsulfonylmethane administered orally raised the platelet count of an adult with lupus erythematosus from 84,000 (after prednisone therapy) to 200,000 over a 2-year period (1.5 gm/day in 3 doses).

sun and wind burn = experiment: Sun and wind burn (Example 23); type: in vivo, human; details: 0.5-2 gm/day, about 4 hours exposure; companions severely burned
leg cramps = experiment: Night leg cramps in geriatric patient (Example 26); type: in vivo, human; details: 10 mg/kg/day
Experimental: Administer methylsulfonylmethane to a geriatric patient (over 65 years) suffering from chronic night leg cramps at the rate of 10 mg/kg/day, either in tablet or capsule form, as described in parent application Ser. Nos. 418,110, 584,354 or 601,771, or in admixture with one or more foodstuffs ingested daily by the patient, e.g., milk, coffee, tea, cold desserts, etc. Within about 2 days, the leg cramps will diminish in frequency or disappear.

arthritis = experiment: Canine arthritis and other sources of pain (Example 30); type: in vivo, dog
Source text: In each case the methylsulfonylmethane was admixed with the animal's food just prior to feeding.
This animal, although owned by a veterinarian, had not responded to a variety of therapeutic regimens over the previous 12 months. Methylsulfonylmethane was given to this dog in its food at a level of 1.5 grams b.i.d. X 1 month.
It was mobile but walked with obvious difficulty and discomfort. The animals was refractory to both cortisone and phenylbutazone.
The animal had not responded to either cortisone nor phenylbutazone and its condition was deteriorating rapidly. Methylsulfonylmethane was included in its diet at 1 gm/day b.i.d. After one week, the dog appeared to be pain-free.

[2] = tested on: sharp pain spasms in the lower abdominal region; experiment: Acute pain, comparison with codeine, subject one (Example 33); type: in vivo, human
Experimental: Codeine and methylsulfonylmethane were compared for the relief of pain in subject one, a person who had sharp pain spasms in the lower abdominal region. Subject's appendix had been removed. Pain began after suffering an accidental traumatic blow to the abdomen during a volley ball game. Pyelogram examination indicated no obstruction. […] Codeine (2) plus 1/4 grain with aspirin every 4 hours, provided some relief. The codeine/aspirin was discontinued and 1 g methylsulfonylmethane in warm water was given. A half-hour later all discomfort ceased. A second gram of methylsulfonylmethane in water was given 4 hours later, after which the subject continued pain free.

mammary carcinoma = experiment: Resistance to DMBA-induced mammary carcinoma (Example 36); type: in vivo, female rats; details: 2% by wt. in diet; Group 3; Group 2 (DMBA only) had cancers
Experimental: Forty-five female rats were stabilized to the laboratory and then divided into 3 groups of 15 each. Group 1 was designated control, Groups 2 and 3 were treated by topical application to the hair-free abdomen with a solution of the carcinogen dimethyl-benzanthracene (DMBA). All three groups were each fed a standard laboratory diet with water, ad lib. Group 3 also received in […] their standard diet 2% by wt. of methylsulfonylmethane.

epiphysitis = details: oral; cited from earlier work

Structure (SMILES): CS(C)(=O)=O [methylsulfonylmethane]
- deaths in aquarium by day ten (stress death): one
- time to significant improvement in mental attitude (mood and depression; 1000 mg/kg body weight daily, chronically or terminally ill patient): Within 12 hours to 2 days
- alertness (mood and depression; reported by individuals): increased alertness
- depression frequency (mood and depression; reported by individuals): very infrequent depression
- mood changes (mood and depression; reported by individuals): a plateau of mood changes
- ability to concentrate (mood and depression; students): enhanced
- time to relief of depression (mood and depression; subjects intermittently on antidepression medication, days with prior medication): within hours rather than days
- day on which the 36-hour combination healing result was matched [1]: three
- platelet count (platelet count): 200,000
- suffering from sun and wind exposure (sun and wind burn): suffered only mildly
- time until leg cramps diminish in frequency or disappear (leg cramps): about 2 days
- benefit, Dog A (arthritis; Dog A, 0.5 g/day b.i.d., 7 days): without apparent benefit
- time to free mobility without evident discomfort nor ataxia, Dog A (arthritis; Dog A, 1.5 g/day b.i.d.): ≤ 10 days
- benefit, Dog B (arthritis; Dog B, 1.5 grams b.i.d. X 1 month): no apparent benefit
- mobility over the first month, Dog C (arthritis; Dog C, 0.5 grams b.i.d.): gradual improvement
- musculoskeletal restriction and discomfort in third month, Dog C (arthritis; Dog C, 0.5 grams b.i.d.): neither musculoskelatal restriction nor discomfort
- pain after one week, Dog D (arthritis; Dog D, 1 gm/day b.i.d.): pain-free
- state at over six months, Dog D (arthritis; Dog D, 1 gm/day b.i.d.): apparently healthy and frisky, requiring no medication
- time until all discomfort ceased ([2]; 1 g in warm water, oral): A half-hour
- pain after second gram ([2]; second gram 4 hours later): pain free
- mammary carcinoma at 5 months post DMBA (mammary carcinoma): free of mammary carcinoma
- correction of epiphysitis (epiphysitis): rapidly corrected
